From US20260285850A1, “SUBSTITUTED OXAZOLIDINONES AND IMIDAZOLINONES AS HERBICIDES” (FMC CORPORATION, priority 2023, published 2026)

Key:
Type in all cases: in vivo
[1] = system: barnyardgrass (Echinochloa crusgalli); experiment: Test B flooded paddy test, visual plant response rating 0-100; conditions: 250 g ai/ha, Flood, applied to paddy water, evaluated after 13 days
Procedure, shortened: (§1)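 In this flooded assay, 2-leaf seedlings received compound through the water layer, kept at 3 cm over the soil. Plants were held 13 days in a greenhouse and then visually compared with control pots.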

[2] = system: ducksalad (Heteranthera limosa); experiment: as above; conditions: 250 g ai/ha, Flood, applied to paddy water, evaluated after 13 days
Procedure, shortened: as §1

[3] = system: sedge, umbrella (small-flower umbrella sedge, Cyperus difformis); experiment: as above; conditions: 250 g ai/ha, Flood, applied to paddy water, evaluated after 13 days
Procedure, shortened: as §1

rice (Oryza sativa) = experiment: as above; conditions: 250 g ai/ha, Flood, applied to paddy water, evaluated after 13 days
Procedure, shortened: as §1

[4] = system: oat, wild (wild oat, Avena fatua); experiment: Test A postemergence application, visual injury rating 0-100; conditions: 10 days
Procedure, shortened: (§2)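 Compound in a non-phytotoxic, surfactant-containing solvent is applied either as a directed soil spray before seedlings emerge or onto emerged plants 2-10 cm tall; pots hold a loam-sand blend. Plants grow 10 days under greenhouse conditions and are rated by eye against untreated controls (0 no effect, 100 complete control).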

[5] = system: barnyardgrass (Echinochloa crus-galli); experiment: as above; conditions: 10 days
Procedure, shortened: as §2

[6] = system: ragweed (common ragweed, Ambrosia artemisiifolia); experiment: as above; conditions: 10 days
Procedure, shortened: as §2

[7] = system: blackgrass (Alopecurus myosuroides); experiment: as above; conditions: 10 days
Procedure, shortened: as §2

corn (Zea mays) [8] = experiment: as above; conditions: 10 days
Procedure, shortened: as §2

[9] = system: palmer (palmer amaranth, palmer pigweed, Amaranthus palmeri); experiment: as above; conditions: 10 days
Procedure, shortened: as §2

soybean (Glycine max) [10] = experiment: as above; conditions: 10 days
Procedure, shortened: as §2

[11] = system: ryegrass, Italian (italian ryegrass, Lolium multiflorum); experiment: as above; conditions: 10 days
Procedure, shortened: as §2

[12] = system: galium (catchweed bedstraw, Galium aparine); experiment: as above; conditions: 10 days
Procedure, shortened: as §2

[13] = system: wheat (Triticum aestivum); experiment: as above; conditions: 10 days
Procedure, shortened: as §2

kochia (Bassia scoparia) [14] = experiment: as above; conditions: 10 days
Procedure, shortened: as §2

[15] = system: green foxtail (Setaria viridis); experiment: as above; conditions: 10 days
Procedure, shortened: as §2

[16] = system: horseweed (Erigeron canadensis); experiment: as above; conditions: 10 days
Procedure, shortened: as §2

[17] = system: oat, wild (wild oat, Avena fatua); experiment: Test A preemergence soil spray, visual injury rating 0-100; conditions: 10 days, 0 = no effect, 100 = complete control
Procedure, shortened: as §2

[18] = system: barnyardgrass (Echinochloa crus-galli); experiment: as above; conditions: 10 days, 0 = no effect, 100 = complete control
Procedure, shortened: as §2

[19] = system: ragweed (common ragweed, Ambrosia artemisiifolia); experiment: as above; conditions: 10 days, 0 = no effect, 100 = complete control
Procedure, shortened: as §2

[20] = system: blackgrass (Alopecurus myosuroides); experiment: as above; conditions: 10 days, 0 = no effect, 100 = complete control
Procedure, shortened: as §2

corn (Zea mays) [21] = experiment: as above; conditions: 10 days, 0 = no effect, 100 = complete control
Procedure, shortened: as §2

[22] = system: palmer (palmer amaranth, palmer pigweed, Amaranthus palmeri); experiment: as above; conditions: 10 days, 0 = no effect, 100 = complete control
Procedure, shortened: as §2

soybean (Glycine max) [23] = experiment: as above; conditions: 10 days, 0 = no effect, 100 = complete control
Procedure, shortened: as §2

[24] = system: ryegrass, Italian (italian ryegrass, Lolium multiflorum); experiment: as above; conditions: 10 days, 0 = no effect, 100 = complete control
Procedure, shortened: as §2

[25] = system: wheat (Triticum aestivum); experiment: as above; conditions: 10 days, 0 = no effect, 100 = complete control
Procedure, shortened: as §2

kochia (Bassia scoparia) [26] = experiment: as above; conditions: 10 days, 0 = no effect, 100 = complete control
Procedure, shortened: as §2

[27] = system: green foxtail (Setaria viridis); experiment: as above; conditions: 10 days, 0 = no effect, 100 = complete control
Procedure, shortened: as §2

[28] = 31 g ai/ha, postemergence, 0 = no effect, 100 = complete control
[29] = Postemergence, 125 g ai/ha, 0 is no effect, 100 is complete control

For CC(C)COC(=O)C1C=CC(NC(=O)C2(C)CN(c3cc(F)cc(F)c3)C(=O)O2)C1 (stereo not shown) [Compound 56], the “Plant response rating, Barnyardgrass (0 to 100 scale, 0 is no effect and 100 is complete control)” value [1] was 95, the “Plant response rating, Ducksalad (0 to 100 scale, 0 is no effect and 100 is complete control)” value [2] was 90 and the “Plant response rating, Sedge, Umbrella (0 to 100 scale, 0 is no effect and 100 is complete control)” value [3] was 50. The “Plant response rating, Rice (0 to 100 scale, 0 is no effect and 100 is complete control)” value (rice (Oryza sativa)) was 15, the “Oat, Wild plant response rating (0-100)” value [4, 28] was 90 and the “Oat, Wild plant response rating (0 to 100 scale)” value [4, 29] was 90. The “Barnyardgrass plant response rating (0-100)” value [5, 28] was 90, the “Barnyardgrass plant response rating (0 to 100 scale)” value [5, 29] was 100 and the “Ragweed plant response rating (0-100)” value [6, 28] was 50. The “Ragweed plant response rating (0 to 100 scale)” value [6, 29] was 70, the “Blackgrass plant response rating (0-100)” value [7, 28] was 60 and the “Blackgrass plant response rating (0 to 100 scale)” value [7, 29] was 90. The “Corn plant response rating (0-100)” value (corn (Zea mays) [8]; [28]) was 90, the “Corn plant response rating (0 to 100 scale)” value (corn (Zea mays) [8]; [29]) was 100 and the “Amaranth, Palmer plant response rating (0-100)” value [9, 28] was 90. The “Amaranth, Palmer / Pigweed, Palmer plant response rating (0 to 100 scale)” value [9, 29] was 80, the “Soybean plant response rating (0-100)” value (soybean (Glycine max) [10]; [28]) was 70 and the “Soybean plant response rating (0 to 100 scale)” value (soybean (Glycine max) [10]; [29]) was 70. The “Ryegrass, Italian plant response rating (0-100)” value [11, 28] was 90, the “Ryegrass, Italian plant response rating (0 to 100 scale)” value [11, 29] was 90 and the “Galium plant response rating (0-100)” value [12, 28] was 80. For the same compound, the “Galium plant response rating (0 to 100 scale)” value [12, 29] was 80, the “Wheat plant response rating (0-100)” value [13, 28] was 90 and the “Wheat plant response rating (0 to 100 scale)” value [13, 29] was 90. For the same compound, the “Kochia plant response rating (0-100)” value (kochia (Bassia scoparia) [14]; [28]) was 70, the “Kochia plant response rating (0 to 100 scale)” value (kochia (Bassia scoparia) [14]; [29]) was 80 and the “Foxtail, Green plant response rating (0-100)” value [15, 28] was 30. For the same compound, the “Foxtail, Green plant response rating (0 to 100 scale)” value [15, 29] was 90, the “Horseweed plant response rating (0-100)” value [16, 28] was 20 and the “Horseweed plant response rating (0 to 100 scale)” value [16, 29] was 80. The “Oat, Wild plant response rating (0-100)” value ([17]; 31 g ai/ha) was 90, the “Oat, Wild plant response rating (0 to 100 scale)” value ([17]; 125 g ai/ha) was 90 and the “Barnyardgrass plant response rating (0-100)” value ([18]; 31 g ai/ha) was 30. The “Barnyardgrass plant response rating (0 to 100 scale)” value ([18]; 125 g ai/ha) was 100, the “Ragweed plant response rating (0-100)” value ([19]; 31 g ai/ha) was 0 and the “Ragweed plant response rating (0 to 100 scale)” value ([19]; 125 g ai/ha) was 0. The “Blackgrass plant response rating (0-100)” value ([20]; 31 g ai/ha) was 30, the “Blackgrass plant response rating (0 to 100 scale)” value ([20]; 125 g ai/ha) was 90 and the “Corn plant response rating (0-100)” value (corn (Zea mays) [21]; 31 g ai/ha) was 10. For the same compound, the “Corn plant response rating (0 to 100 scale)” value (corn (Zea mays) [21]; 125 g ai/ha) was 90, the “Amaranth, Palmer plant response rating (0-100)” value ([22]; 31 g ai/ha) was 0 and the “Amaranth, Palmer plant response rating (0 to 100 scale)” value ([22]; 125 g ai/ha) was 70. For the same compound, the “Soybean plant response rating (0-100)” value (soybean (Glycine max) [23]; 31 g ai/ha) was 30, the “Soybean plant response rating (0 to 100 scale)” value (soybean (Glycine max) [23]; 125 g ai/ha) was 80 and the “Ryegrass, Italian plant response rating (0-100)” value ([24]; 31 g ai/ha) was 80. The “Ryegrass, Italian plant response rating (0 to 100 scale)” value ([24]; 125 g ai/ha) was 90, the “Wheat plant response rating (0-100)” value ([25]; 31 g ai/ha) was 90 and the “Wheat plant response rating (0 to 100 scale)” value ([25]; 125 g ai/ha) was 100. The “Kochia plant response rating (0-100)” value (kochia (Bassia scoparia) [26]; 31 g ai/ha) was 0, the “Kochia plant response rating (0 to 100 scale)” value (kochia (Bassia scoparia) [26]; 125 g ai/ha) was 90 and the “Foxtail, Green plant response rating (0-100)” value ([27]; 31 g ai/ha) was 40. The “Foxtail, Green plant response rating (0 to 100 scale)” value ([27]; 125 g ai/ha) was 90.
